Reference: the supplement of paper PMC10307832

What was measured:
Assay in all cases: relative viability (nuclei count vs DMSO), 5 days (fraction); higher = more cells survive
Shikonin + Tozasertib = compound: CC(C)=CC[C@@H](O)C1=CC(=O)c2c(O)ccc(O)c2C1=O [Shikonin] + Cc1cc(Nc2cc(N3CCN(C)CC3)nc(Sc3ccc(NC(=O)C4CC4)cc3)n2)n[nH]1 [Tozasertib] (partner 0.1 µM)
Procedure, shortened: (§1)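 Relative viability divides the nuclei count in treated wells by that in vehicle wells. Lung cancer cell lines were seeded in 1536-well plates, dosed by pin tool the next day, and fixed and stained after 5 days in one step with final 0.05% Triton X-100, 1% formaldehyde and 1 ug/ml Hoechst. Dosing was a single drug or a fixed anchor-drug dose plus five library-drug doses (not always all listed) in √10 steps, and values are medians of duplicate plates imaged at 4×.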

[1] = compound: CC(C)N(CCCNC(=O)Nc1ccc(C(C)(C)C)cc1)C[C@H]1O[C@@H](n2ccc3c(N)ncnc32)[C@H](O)[C@@H]1O + Nc1nc2[nH]cc(CCc3ccc(C(=O)N[C@@H](CCC(=O)O)C(=O)O)cc3)c2c(=O)[nH]1 [Pemetrexed] (partner 0.2 µM)
Procedure, shortened: as §1

[2] = compound: CC(C)N(CCCNC(=O)Nc1ccc(C(C)(C)C)cc1)C[C@H]1O[C@@H](n2ccc3c(N)ncnc32)[C@H](O)[C@@H]1O + C[C@@H](Oc1cc(-c2cnn(C3CCNCC3)c2)cnc1N)c1c(Cl)ccc(F)c1Cl [Crizotinib] (partner 1 µM)
Procedure, shortened: as §1

[3] = compound: CC(C)N(CCCNC(=O)Nc1ccc(C(C)(C)C)cc1)C[C@H]1O[C@@H](n2ccc3c(N)ncnc32)[C@H](O)[C@@H]1O + CC1(C)CCC(c2ccc(Cl)cc2)=C(CN2CCN(c3ccc(C(=O)NS(=O)(=O)c4ccc(N[C@H](CCN5CCOCC5)CSc5ccccc5)c(S(=O)(=O)C(F)(F)F)c4)cc3)CC2)C1 [Navitoclax] (partner 0.5 µM)
Procedure, shortened: as §1

Cell Line	relative viability (Shikonin + Tozasertib; first compound 0.01 µM)	relative viability (Shikonin + Tozasertib; first compound 0.1 µM)	relative viability (Shikonin + Tozasertib; first compound 0.3162 µM)	relative viability (Shikonin + Tozasertib; first compound 1 µM)	relative viability ([1]; first compound 0.08 µM)	relative viability ([1]; first compound 0.253 µM)	relative viability ([1]; first compound 0.8 µM)	relative viability ([1]; first compound 2.53 µM)	relative viability ([1]; first compound 8 µM)	relative viability ([2]; first compound 0.08 µM)	relative viability ([2]; first compound 0.253 µM)	relative viability ([2]; first compound 0.8 µM)	relative viability ([2]; first compound 2.53 µM)	relative viability ([2]; first compound 8 µM)	relative viability ([3]; first compound 0.08 µM)	relative viability ([3]; first compound 0.253 µM)	relative viability ([3]; first compound 0.8 µM)	relative viability ([3]; first compound 2.53 µM)	relative viability ([3]; first compound 8 µM)
HCC-44	0.901	0.732	1.19	0.937	0.662	0.654	0.539	0.688	0.586	0.788	0.864	0.832	0.859	0.744	0.952	1.1	0.915	0.961	1.03
HCC-827	0.452	0.456	0.432	0.453	0.257	0.284	0.279	0.267	0.269	0.883	0.952	–	0.949	0.881	0.992	0.949	–	0.962	0.977
NCI-H1623	0.423	0.472	0.441	0.449	–	–	–	–	–	–	–	–	–	–	–	–	–	–	–
NCI-H2405	0.768	0.802	0.779	0.687	1.09	1.08	0.999	1.01	0.968	0.875	0.822	0.782	0.865	0.856	0.957	–	0.991	1	1.05
RERF-LC-KJ	0.55	0.44	0.499	0.388	0.502	0.478	0.517	0.48	0.466	0.821	0.85	0.845	0.789	0.779	0.717	1.06	1.03	0.931	0.822
NCI-H1651	0.8	0.783	0.744	0.748	0.654	0.527	0.57	0.599	0.601	0.838	0.836	0.859	0.824	0.876	1.01	1.04	1.09	1.05	0.995
HARA	0.0977	0.0981	0.115	0.113	0.229	0.293	0.236	0.233	0.231	0.991	0.968	0.927	1.1	0.988	1.08	1.07	1.15	1.13	0.941
NCI-H1650	0.419	0.367	0.365	0.3	0.306	0.395	0.34	0.35	0.277	0.925	1.05	–	1.06	0.986	1.11	1.17	–	1.14	1
NCI-H1395	0.794	0.842	0.806	0.763	0.882	0.705	0.553	0.899	0.922	–	–	–	–	–	1.17	1.1	–	1.23	1.53
NCI-H520	0.49	0.436	0.475	0.433	0.614	0.743	0.663	0.787	0.7	0.789	0.548	0.858	0.707	0.733	1.04	1.15	1.1	1.05	0.929
LU99A	0.248	0.281	0.298	0.234	0.178	0.206	0.176	0.204	0.167	0.661	0.571	0.513	0.524	0.498	0.745	0.717	0.747	1.01	0.881
NCI-H1355	0.559	0.553	0.554	0.583	0.964	1.05	0.761	1.03	0.976	1.01	1.08	–	1.09	0.891	0.854	0.909	–	0.911	0.935
HCC-78	0.465	0.433	0.402	0.372	0.869	0.848	0.928	0.844	0.846	0.312	0.304	0.329	0.374	0.34	0.704	0.646	0.607	0.784	0.839
NCI-H1563	–	–	–	–	0.774	0.585	0.795	0.774	0.782	0.813	0.963	0.804	0.812	0.82	–	–	–	–	–
HCC-15	0.459	0.445	0.33	0.465	0.221	0.225	0.229	0.213	0.219	0.85	0.804	0.819	0.832	0.776	0.653	0.717	0.733	0.707	0.673
EKVX	0.387	0.327	0.402	0.414	0.44	0.325	0.413	0.464	0.404	0.989	0.83	0.822	0.917	0.804	0.905	0.974	0.976	0.95	0.915
NCI-H2126	0.91	0.967	0.869	0.846	0.657	0.619	0.696	0.665	0.691	1.01	0.986	1.06	0.992	0.959	0.887	0.825	0.851	0.848	0.776
LK-2	0.178	0.154	0.165	0.154	–	0.252	0.336	0.293	0.279	0.269	0.232	0.217	0.261	0.229	0.848	0.775	0.929	0.768	0.711
NCI-H1437	0.417	0.43	0.405	0.455	0.31	0.307	0.325	0.296	0.283	0.924	0.923	0.962	0.899	0.898	1	1.11	1.07	1.14	1.04
COR-L23	0.202	0.197	0.171	0.149	0.188	0.203	0.202	0.2	0.21	0.601	0.724	0.765	0.755	0.574	0.977	0.919	0.982	1.01	0.963
ABC-1	0.141	0.196	0.188	0.187	–	–	–	–	–	0.816	0.926	–	1.26	1.13	–	–	–	–	–

Cell Line	relative viability (Shikonin + Tozasertib; first compound 0.01 µM)	relative viability (Shikonin + Tozasertib; first compound 0.1 µM)	relative viability (Shikonin + Tozasertib; first compound 0.3162 µM)	relative viability (Shikonin + Tozasertib; first compound 1 µM)	relative viability ([1]; first compound 0.08 µM)	relative viability ([1]; first compound 0.253 µM)	relative viability ([1]; first compound 0.8 µM)	relative viability ([1]; first compound 2.53 µM)	relative viability ([1]; first compound 8 µM)	relative viability ([2]; first compound 0.08 µM)	relative viability ([2]; first compound 0.253 µM)	relative viability ([2]; first compound 0.8 µM)	relative viability ([2]; first compound 2.53 µM)	relative viability ([2]; first compound 8 µM)	relative viability ([3]; first compound 0.08 µM)	relative viability ([3]; first compound 0.253 µM)	relative viability ([3]; first compound 0.8 µM)	relative viability ([3]; first compound 2.53 µM)	relative viability ([3]; first compound 8 µM)
NCI-H522	0.599	0.555	0.615	0.572	0.991	0.944	0.904	1.01	1.04	–	–	–	–	–	–	–	–	–	–
PC-3 [JPC-3]	0.883	0.984	1.01	0.94	1.06	1.08	–	1.09	1.08	0.991	0.994	0.885	0.977	0.917	0.784	0.752	0.807	0.797	0.7
SW 900	0.546	0.458	0.527	0.536	0.472	0.469	–	0.475	0.441	–	–	–	–	–	–	–	–	–	–
A549	–	–	–	–	–	–	–	–	–	0.7	0.609	0.739	0.708	0.714	1.17	1.22	1.25	1.18	1.14
A-427	0.198	0.192	0.159	0.225	1.05	0.998	0.937	0.929	0.99	0.908	0.856	0.95	0.989	0.851	0.917	0.941	0.875	0.969	0.925
NCI-H1792	–	–	–	–	0.769	–	0.697	0.882	0.747	0.975	0.919	1.01	0.915	1.03	0.634	0.589	0.623	0.591	0.571
LCLC-97TM1	0.254	0.21	0.222	0.17	0.179	0.175	0.18	0.163	0.183	0.405	–	0.37	0.344	0.265	0.407	–	0.296	0.273	0.432
NCI-H1703	–	–	–	–	–	–	–	–	–	0.635	0.61	0.685	0.647	0.491	1.13	1.14	1.61	1.27	0.89
LCLC-103H	0.452	0.498	0.52	0.516	0.417	0.454	0.452	0.413	0.51	0.946	0.93	0.914	1	0.872	–	–	–	–	–
SK-LU-1	0.317	0.338	0.351	0.3	1	1.01	1.04	0.983	0.915	1.03	0.931	0.969	1.08	0.875	0.688	0.762	0.86	1.06	0.557
Calu-6	–	–	–	–	–	–	–	–	–	0.744	0.863	0.79	0.771	0.781	0.887	0.87	0.848	0.902	0.841
NCI-H358	0.104	0.102	0.0979	0.0975	0.183	0.159	0.162	0.168	0.166	0.614	0.554	0.717	0.589	0.448	–	–	–	–	–
NCI-H1648	0.537	0.404	0.471	0.408	0.741	0.81	0.472	0.6	0.942	–	–	–	–	–	–	–	–	–	–
EBC-1	–	–	–	–	–	–	–	–	–	0.207	0.199	0.18	0.178	0.171	0.406	0.387	0.383	0.363	0.388
NCI-H650	0.69	0.793	0.788	0.66	0.882	0.884	0.908	0.742	1.01	0.63	0.709	0.785	0.719	0.724	–	–	–	–	–
NCI-H1299	–	–	–	–	–	–	–	–	–	0.927	0.941	0.946	0.99	0.9	1.07	1.05	1.02	1.06	1.02
NCI-H2342	0.408	0.494	0.502	0.507	0.807	0.722	0.729	0.718	0.801	–	–	–	–	–	–	–	–	–	–
IA-LM	–	–	–	–	–	–	–	–	–	0.868	0.747	0.84	0.939	0.644	0.693	0.788	0.951	0.72	0.586
NCI-H661	0.371	0.359	0.355	0.37	0.91	0.892	0.894	0.977	0.912	1.05	1.15	1.13	1.08	0.978	–	–	–	–	–
NCI-H727	1.64	0.672	0.634	0.697	–	–	–	–	–	0.767	0.837	0.899	0.93	0.854	0.416	0.389	0.499	0.534	0.506
NCI-H1793	0.353	0.322	0.332	0.498	0.77	–	0.831	0.801	0.767	–	–	–	–	–	0.487	–	0.393	0.505	0.357
